Values of other authors as cited in patent publication US6034286A, “Processes for producing saturated alcohols” (Union Carbide Chemicals & Plastics Technology Corporation, priority 1997, dated 2000).

Key:
[1] = Table I, organophosphorus ligand
[2] = Table II, promoter; approximate values

Row | SMILES | pKb [1] | pKa [2]
1 | c1ccc(P(c2ccccc2)c2ccccc2)cc1 [Triphenylphosphine] | 2.74 | 
2 | N#CCC#N [CNCH2 CN] |  | 11
